Source: the supplement of paper PMC10307832

Tests used:
Experiment in all cases: relative viability (nuclei count vs DMSO), 5 days (fraction); higher = more cells survive
[1] = compound: CC1=C(C(=O)N2C=CSC2=N1)CCN3CCC(=C(C4=CC=CC=C4)C5=CC=C(C=C5)F)CC3 + CC(C)C[C@H](NC(=O)[C@H](Cc1ccccc1)NC(=O)c1cnccn1)B(O)O [Bortezomib] (partner 0.002 µM)
In short: (§1)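 Lung cancer cell lines were seeded in 1536-well plates and dosed by pin tool the next day, with either a single drug or a fixed anchor-drug dose combined with five library-drug doses (not always all listed) spaced in √10 steps. Five days later, one step fixed the cells and stained their nuclei (final 0.05% Triton X-100, 1% formaldehyde, 1 ug/ml Hoechst), and nuclei were counted on 4× images. Relative viability is the nuclei count in treated wells divided by the count in vehicle wells, and each value is the median of duplicate plates.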

[2] = compound: CC1=C(C(=O)N2C=CSC2=N1)CCN3CCC(=C(C4=CC=CC=C4)C5=CC=C(C=C5)F)CC3 + Nc1nc2[nH]cc(CCc3ccc(C(=O)N[C@@H](CCC(=O)O)C(=O)O)cc3)c2c(=O)[nH]1 [Pemetrexed] (partner 0.2 µM)
In short: as §1

[3] = compound: CC1=C(C(=O)N2C=CSC2=N1)CCN3CCC(=C(C4=CC=CC=C4)C5=CC=C(C=C5)F)CC3 + O=C(c1cc(Cc2n[nH]c(=O)c3ccccc23)ccc1F)N1CCN(C(=O)C2CC2)CC1 [Olaparib] (partner 8 µM)
In short: as §1

[4] = compound: CC1=C(C(=O)N2C=CSC2=N1)CCN3CCC(=C(C4=CC=CC=C4)C5=CC=C(C=C5)F)CC3 + Cc1nc(NC(=O)N2CCC[C@H]2C(N)=O)sc1-c1ccnc(C(C)(C)C(F)(F)F)c1 [Alpelisib] (partner 2 µM)
In short: as §1

## ChaGo-K-1
[1]; first compound 0.08 µM
  relative viability: 1.24
[1]; first compound 0.253 µM
  relative viability: 0.989
[1]; first compound 0.8 µM
  relative viability: 0.761
[1]; first compound 2.53 µM
  relative viability: 1.34
[1]; first compound 8 µM
  relative viability: 0.94
[2]; first compound 0.08 µM
  relative viability: 0.277
[2]; first compound 0.253 µM
  relative viability: 0.27
[2]; first compound 0.8 µM
  relative viability: 0.259
[2]; first compound 2.53 µM
  relative viability: 0.267
[2]; first compound 8 µM
  relative viability: 0.236
[3]; first compound 0.08 µM
  relative viability: 0.451
[3]; first compound 0.253 µM
  relative viability: 0.415
[3]; first compound 0.8 µM
  relative viability: 0.411
[3]; first compound 2.53 µM
  relative viability: 0.458
[3]; first compound 8 µM
  relative viability: 0.416

## EBC-1
[1]; first compound 0.08 µM
  relative viability: 0.57
[1]; first compound 0.253 µM
  relative viability: 0.64
[1]; first compound 0.8 µM
  relative viability: 0.513
[1]; first compound 2.53 µM
  relative viability: 0.437
[1]; first compound 8 µM
  relative viability: 0.529
[4]; first compound 0.08 µM
  relative viability: 0.812
[4]; first compound 0.253 µM
  relative viability: 0.861
[4]; first compound 0.8 µM
  relative viability: 0.789
[4]; first compound 2.53 µM
  relative viability: 0.97
[4]; first compound 8 µM
  relative viability: 0.643
[3]; first compound 0.08 µM
  relative viability: 0.596
[3]; first compound 0.253 µM
  relative viability: 0.756
[3]; first compound 0.8 µM
  relative viability: 0.777
[3]; first compound 2.53 µM
  relative viability: 0.772
[3]; first compound 8 µM
  relative viability: 0.463

## EKVX
[1]; first compound 0.08 µM
  relative viability: 0.826
[1]; first compound 0.253 µM
  relative viability: 0.923
[1]; first compound 0.8 µM
  relative viability: 1.18
[1]; first compound 2.53 µM
  relative viability: 1.01
[1]; first compound 8 µM
  relative viability: 0.684
[2]; first compound 0.08 µM
  relative viability: 0.366
[2]; first compound 0.253 µM
  relative viability: 0.382
[2]; first compound 0.8 µM
  relative viability: 0.436
[2]; first compound 2.53 µM
  relative viability: 0.432
[2]; first compound 8 µM
  relative viability: 0.35
[4]; first compound 0.08 µM
  relative viability: 0.719
[4]; first compound 0.253 µM
  relative viability: 0.868
[4]; first compound 0.8 µM
  relative viability: 1.05
[4]; first compound 2.53 µM
  relative viability: 1.14
[4]; first compound 8 µM
  relative viability: 0.652
[3]; first compound 0.08 µM
  relative viability: 0.83
[3]; first compound 0.253 µM
  relative viability: 0.868
[3]; first compound 0.8 µM
  relative viability: 0.922
[3]; first compound 2.53 µM
  relative viability: 0.87
[3]; first compound 8 µM
  relative viability: 0.729

## EMC-BAC-2
[1]; first compound 0.08 µM
  relative viability: 0.902
[1]; first compound 0.253 µM
  relative viability: 1.13
[1]; first compound 0.8 µM
  relative viability: 1.07
[1]; first compound 2.53 µM
  relative viability: 1.07
[1]; first compound 8 µM
  relative viability: 0.705
[2]; first compound 0.08 µM
  relative viability: 0.379
[2]; first compound 0.253 µM
  relative viability: 0.482
[2]; first compound 0.8 µM
  relative viability: 0.49
[2]; first compound 2.53 µM
  relative viability: 0.461
[2]; first compound 8 µM
  relative viability: 0.386
[4]; first compound 0.08 µM
  relative viability: 0.639
[4]; first compound 0.253 µM
  relative viability: 0.673
[4]; first compound 0.8 µM
  relative viability: 0.806
[4]; first compound 2.53 µM
  relative viability: 0.824
[4]; first compound 8 µM
  relative viability: 0.588
[3]; first compound 0.08 µM
  relative viability: 0.46
[3]; first compound 0.253 µM
  relative viability: 0.468
[3]; first compound 0.8 µM
  relative viability: 0.468
[3]; first compound 2.53 µM
  relative viability: 0.522
[3]; first compound 8 µM
  relative viability: 0.46

## EPLC-272H
[1]; first compound 0.253 µM
  relative viability: 0.888
[1]; first compound 0.8 µM
  relative viability: 0.888
[1]; first compound 2.53 µM
  relative viability: 1.07
[1]; first compound 8 µM
  relative viability: 0.921
[2]; first compound 0.08 µM
  relative viability: 0.335
[2]; first compound 0.8 µM
  relative viability: 0.333
[2]; first compound 2.53 µM
  relative viability: 0.288
[2]; first compound 8 µM
  relative viability: 0.416
[4]; first compound 0.253 µM
  relative viability: 0.878
[4]; first compound 0.8 µM
  relative viability: 1.05
[4]; first compound 2.53 µM
  relative viability: 0.852
[4]; first compound 8 µM
  relative viability: 0.737
[3]; first compound 0.08 µM
  relative viability: 0.693
[3]; first compound 0.8 µM
  relative viability: 0.911
[3]; first compound 2.53 µM
  relative viability: 0.758
[3]; first compound 8 µM
  relative viability: 0.742

## H3255
[1]; first compound 0.08 µM
  relative viability: 0.909
[1]; first compound 0.253 µM
  relative viability: 0.831
[1]; first compound 0.8 µM
  relative viability: 0.704
[1]; first compound 2.53 µM
  relative viability: 0.873
[1]; first compound 8 µM
  relative viability: 0.732
[2]; first compound 0.08 µM
  relative viability: 0.554
[2]; first compound 0.253 µM
  relative viability: 0.532
[2]; first compound 0.8 µM
  relative viability: 0.552
[2]; first compound 2.53 µM
  relative viability: 0.565
[2]; first compound 8 µM
  relative viability: 0.552
[4]; first compound 0.08 µM
  relative viability: 0.52
[4]; first compound 0.253 µM
  relative viability: 0.623
[4]; first compound 0.8 µM
  relative viability: 0.727
[4]; first compound 2.53 µM
  relative viability: 0.712
[4]; first compound 8 µM
  relative viability: 0.587
[3]; first compound 0.08 µM
  relative viability: 0.503
[3]; first compound 0.253 µM
  relative viability: 0.63
[3]; first compound 0.8 µM
  relative viability: 0.548
[3]; first compound 2.53 µM
  relative viability: 0.6
[3]; first compound 8 µM
  relative viability: 0.504

## HARA
[1]; first compound 0.08 µM
  relative viability: 1.08
[1]; first compound 0.253 µM
  relative viability: 1.47
[1]; first compound 0.8 µM
  relative viability: 1.13
[1]; first compound 2.53 µM
  relative viability: 1.21
[1]; first compound 8 µM
  relative viability: 1.05
[2]; first compound 0.08 µM
  relative viability: 0.253
[2]; first compound 0.253 µM
  relative viability: 0.252
[2]; first compound 0.8 µM
  relative viability: 0.253
[2]; first compound 2.53 µM
  relative viability: 0.252
[2]; first compound 8 µM
  relative viability: 0.228
[4]; first compound 0.08 µM
  relative viability: 0.932
[4]; first compound 0.253 µM
  relative viability: 0.668
[4]; first compound 0.8 µM
  relative viability: 1.05
[4]; first compound 2.53 µM
  relative viability: 0.77
[4]; first compound 8 µM
  relative viability: 0.623
[3]; first compound 0.08 µM
  relative viability: 0.761
[3]; first compound 0.253 µM
  relative viability: 0.779
[3]; first compound 0.8 µM
  relative viability: 0.821
[3]; first compound 2.53 µM
  relative viability: 0.755
[3]; first compound 8 µM
  relative viability: 0.774

## HCC-15
[1]; first compound 0.08 µM
  relative viability: 1.05
[1]; first compound 0.253 µM
  relative viability: 1.04
[1]; first compound 0.8 µM
  relative viability: 1.09
[1]; first compound 2.53 µM
  relative viability: 0.964
[1]; first compound 8 µM
  relative viability: 0.786
[2]; first compound 0.08 µM
  relative viability: 0.216
[2]; first compound 0.253 µM
  relative viability: 0.207
[2]; first compound 0.8 µM
  relative viability: 0.225
[2]; first compound 2.53 µM
  relative viability: 0.231
[2]; first compound 8 µM
  relative viability: 0.227
[4]; first compound 0.08 µM
  relative viability: 0.875
[4]; first compound 0.253 µM
  relative viability: 0.958
[4]; first compound 0.8 µM
  relative viability: 0.972
[4]; first compound 2.53 µM
  relative viability: 1.04
[4]; first compound 8 µM
  relative viability: 0.69
[3]; first compound 0.08 µM
  relative viability: 0.777
[3]; first compound 0.253 µM
  relative viability: 0.782
[3]; first compound 0.8 µM
  relative viability: 0.716
[3]; first compound 2.53 µM
  relative viability: 0.736
[3]; first compound 8 µM
  relative viability: 0.643

## HCC-44
[1]; first compound 0.08 µM
  relative viability: 0.926
[1]; first compound 0.253 µM
  relative viability: 0.769
[1]; first compound 0.8 µM
  relative viability: 0.896
[1]; first compound 2.53 µM
  relative viability: 1.06
[1]; first compound 8 µM
  relative viability: 0.856
[2]; first compound 0.08 µM
  relative viability: 0.729
[2]; first compound 0.253 µM
  relative viability: 0.664
[2]; first compound 0.8 µM
  relative viability: 0.612
[2]; first compound 2.53 µM
  relative viability: 0.644
[2]; first compound 8 µM
  relative viability: 0.554
[4]; first compound 0.08 µM
  relative viability: 0.906
[4]; first compound 0.253 µM
  relative viability: 0.736
[4]; first compound 0.8 µM
  relative viability: 0.863
[4]; first compound 2.53 µM
  relative viability: 0.73
[4]; first compound 8 µM
  relative viability: 0.805
[3]; first compound 0.08 µM
  relative viability: 1.01
[3]; first compound 0.253 µM
  relative viability: 1.08
[3]; first compound 0.8 µM
  relative viability: 1.03
[3]; first compound 2.53 µM
  relative viability: 1.13
[3]; first compound 8 µM
  relative viability: 0.643
